Reference: patent US7112683B2, “Cyclic sulfone containing retroviral protease inhibitors” (priority 1992, dated 2006)
Where two headings read alike, the source gives them in different places.

Key:
HIV protease = HIV protease (Human immunodeficiency virus type 1 group M subtype B, UniProt P04585); assay: HIV protease enzyme assay (fluorogenic substrate 2-aminobenzoyl-Ile-Nle-Phe(p-NO2)-Gln-ArgNH2); format: biochemical
Experimental: The compounds of the present invention are effective HIV protease inhibitors. […] The calculated IC50 indicates the concentration providing inhibition of 50%, i.e., the concentration at which the inhibitor compound reduces enzyme activity by 50%). The enzyme method is described below. The substrate is 2-aminobenzoyl-Ile-Nle-Phe(p-NO2)-Gln-ArgNH2. The positive control is MVT-101 [Miller, M. et al, Science, 246, 1149 (1989)]. The assay conditions are as follows: • Assay buffer: 20 mM sodium phosphate, pH 6.4 • 20% glycerol • 1 mM EDTA • 1 mM DTT • 0.1% CHAPS
The above described substrate is dissolved in DMSO, then diluted 10 fold in assay buffer. Final substrate concentration in the assay is […].
HIV protease is diluted in the assay buffer to a final concentration of glycerol is 18%. The test compound is dissolved in DMSO and diluted in DMSO to 10× the test concentration; […] of the enzyme preparation is added, the materials mixed and then the mixture is incubated at ambient temperature for 15 minutes. The enzyme reaction is initiated by the addition of […] of substrate. The increase in fluorescence is monitored at 4 time points (0, 8, 16 and 24 minutes) at ambient temperature. Each assay is carried out in duplicate wells.

[1] = TD50 of Table 1 (toxic dose, method not described)
HIV = assay: EC50 of Table 1 (antiviral activity, method not described); format: cell-based
[2] = IC50 (range given for the listed examples), inhibition of the HIV enzyme, range over Examples 4, 4a, 7, 8 and 9
[3] = IC50, HIV protease, pH 6.4, ambient temperature
[4] = HIV protease, pH 6.4, ambient temperature, read-out: IC50

| Compound | IC50 (HIV protease; [2]) [nM] | IC50 (HIV protease; [3]) [nM] | IC50 (HIV protease; [4]) [nM] | IC50 (HIV protease; inhibition of the HIV enzyme, range over Examples 4, 4a, 7, 8 and 9, read-out: IC50 (range given for the listed examples)) [nM] | TD50 [1] | EC50 (HIV) [nM] |
| --- | --- | --- | --- | --- | --- | --- |
| CC(C)CCN(C[C@@H](O)[C@H](Cc1ccccc1)NC(=O)C1CCCS(=O)(=O)C1)S(=O)(=O)c1ccccc1 (some centres unmarked) [Example 8] | 3 to 140 | 4 | – | – | – | – |
| CC(C)CN(CC(O)C(Cc1ccccc1)NC(=O)C1CCCS(=O)(=O)C1)S(=O)(=O)NC(C)(C)C (centres unmarked) [Example 9] | – | – | 140 | 3 to 140 | – | – |
| CC(C)CCN(C[C@@H](O)[C@H](Cc1ccccc1)NC(=O)C1CCCS(=O)(=O)C1)C(=O)NC(C)(C)Cn1ccnc1 (some centres unmarked) [Example 4a] | 3 to 140 | 46 | – | – | – | – |
| CC(C)(C)NC(=O)[C@@H]1C[C@@H]2CCCC[C@@H]2CN1C[C@@H](O)[C@H](Cc1ccccc1)NC(=O)C1CCCS(=O)(=O)C1 (some centres unmarked) [Example 7] | 3 to 140 | 3 | – | – | – | – |
| 2H-thiopyran-3-carboxamide, N-(3-[[[(1,1-dimethylethyl amino]-carbonyl](3-methylbutyl) amino]-2-hydroxy-1-(phenylmethyl) propyl]tetrahydro,-1,1-dioxide. [Example 4] | – | – | 13 | – | 308,000 nM | 63 |
